The subject of assay [1] is velvetleaf. In words: Test C pre-/postemergence herbicide test. It is filed as in vivo, Abutilon theophrasti. Conditions: for Velvetleaf plant response rating: scale 0 to 100, 0 is no effect and 100 is complete control. A digest of the protocol:
(§1)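 Response scores range from 0, meaning no effect, to 100, meaning complete control, assigned visually by comparison with controls roughly two weeks (13 to 15 days) after spraying. Applications were made preemergence to seeded loam–sand soil and postemergence to 1- to 4-leaf plants.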

The subject of assay [2] is crabgrass, large. In words: Test C pre-/postemergence herbicide test. It is filed as in vivo, Digitaria sanguinalis. The procedure, abridged: as §1
The subject of assay [3] is wheat (winter wheat). The assay can be described thus: Test C pre-/postemergence herbicide test. It is filed as in vivo, Triticum aestivum. The conditions noted are these: for Wheat plant response rating: scale 0 to 100, 0 is no effect and 100 is complete control. A digest of the protocol: as §1
Assay [4] deals with rice. The assay can be described thus: Test C flooded paddy test. It is filed as in vivo, Oryza sativa. Conditions: Flood. The procedure, abridged:
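Plants grown to the 2-leaf stage; pots flooded to 3 cm above soil and compound applied directly into the paddy water, depth kept throughout. Greenhouse 13 to 15 days, then visual rating vs untreated controls on 0–100 scale (0 no effect, 100 complete control); dash means no result.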

The subject of assay [5] is pigweed. The assay can be described thus: Test C pre-/postemergence herbicide test. It is filed as in vivo, Amaranthus retroflexus. Conditions: for Pigweed plant response rating: scale 0 to 100, 0 is no effect and 100 is complete control. A digest of the protocol:
as §1

The subject of assay [6] is lambsquarters. In words: Test C pre-/postemergence herbicide test. It is filed as in vivo, Chenopodium album. Conditions: for Lambsquarters plant response rating: scale 0 to 100, 0 is no effect and 100 is complete control. The procedure, abridged: as §1
Assay [7] concerns ragweed. The assay can be described thus: Test A pre-/postemergence herbicide test. It is filed as in vivo, Ambrosia elatior. The conditions noted are these: for Plant response rating, Ragweed: 0 to 100 scale. A digest of the protocol: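 Scoring was visual, relative to untreated controls, on a 0–100 scale after about 10 greenhouse days. Preemergence treatment used a directed soil spray over seeded loam/sand; postemergence treatment targeted one- to two-leaf plants of 2–10 cm.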

[8] abbreviates: Preemergence, 62 g ai/ha, scale 0 to 100.
Setting [9] is: Preemergence, 125 g ai/ha, scale 0 to 100 (0 no effect, 100 complete control).
[10] abbreviates: Preemergence, 31 g ai/ha, scale 0 to 100 (0 no effect, 100 complete control).
Where [11] appears, read: Preemergence, 250 g ai/ha, scale 0 to 100 (0 no effect, 100 complete control).
[12] abbreviates: 62 g ai/ha, scale of 0 to 100 where 0 is no effect and 100 is complete control, 13 to 15 days.
Setting [13] is: Preemergence, 31 g ai/ha, scale 0 to 100, 0 is no effect and 100 is complete control.
Where [14] appears, read: Postemergence, 31 g ai/ha, scale 0 to 100 (0 no effect, 100 complete control).
[15] abbreviates: Postemergence, 62 g ai/ha, scale 0 (no effect) to 100 (complete control).
Where [16] appears, read: Postemergence, 125 g ai/ha, scale 0 to 100 (0 no effect, 100 complete control).
The mark [17] stands for this setting: Postemergence, 250 g ai/ha, scale 0 to 100 (0 no effect, 100 complete control).
[18] abbreviates: 125 g ai/ha, visual rating, 0 no effect, 100 complete control, approximately 10 days, preemergence.
[19] abbreviates: 125 g ai/ha, scale of 0 to 100 where 0 is no effect and 100 is complete control, 13 to 15 days.

On to `O=C1NCC(c2ccc(Cl)c(Cl)c2)C1C(=O)Nc1ccccc1F` (racemic) [Compound 14], for which the “Plant response rating, Velvetleaf” value in assay [1] (setting [8]) and in assay [1] (setting [9]) was 0 each time. Also, the “Plant response rating, Crabgrass, Large” value in assay [2] (setting [8]) turned out to be 98; in assay [2] (setting [9]), 98; in assay [2] (setting [11]), 100. Besides, in assay [2] (setting [10]), the “Crabgrass, Large plant response rating” value was found to be 90. Also, the “Plant response rating, Wheat” value in assay [3] (setting [8]) and in assay [3] (setting [9]) was 10 each time. Also, the “Plant response rating, Rice” value in assay [4] (setting [12]) is on record as 0; in assay [4] (250 g ai/ha, scale 0 to 100), 0. Besides, the “Plant response rating, Pigweed” value in assay [5] (setting [8]) and in assay [5] (setting [9]) was 0 throughout.
`O=C1NCC(c2ccc(F)c(C(F)(F)F)c2)C1C(=O)Nc1cccc(F)c1F` (racemic) [Compound 77]: the “Lambsquarters plant response rating” value in assay [6] (Preemergence, 31 g ai/ha) amounted to 75. Also, the “Plant response rating, Lambsquarters” value in assay [6] (setting [8]) and in assay [6] (setting [9]) was 85 throughout. The “Plant response rating (scale of 0 to 100), Lambsquarters” value in assay [6] (Preemergence, 250 g ai/ha) came out at 98. Besides, in assay [1] (Preemergence, 31 g ai/ha), the “Velvetleaf plant response rating” value is recorded as 0. Further, the “Plant response rating, Velvetleaf” value stood at 25 in assay [1] (setting [8]) and 30 in assay [1] (setting [9]). In assay [1] (Preemergence, 250 g ai/ha), the “Plant response rating (scale of 0 to 100), Velvetleaf” value is 40. In addition, the “Crabgrass, Large plant response rating” value in assay [2] (setting [13]) stood at 95. Besides, the “Plant response rating, Crabgrass, Large” value in assay [2] (setting [8]) was 95; in assay [2] (setting [9]), 98. Besides, in assay [2] (Preemergence, 250 g ai/ha), the “Plant response rating (scale of 0 to 100), Crabgrass, Large” value came out at 98. In addition, in assay [3] (Preemergence, 31 g ai/ha), the “Wheat plant response rating” value is reported as 0. The “Plant response rating, Wheat” value in assay [3] (setting [8]) is reported as 55; in assay [3] (setting [9]), 80. The “Plant response rating (scale of 0 to 100), Wheat” value in assay [3] (Preemergence, 250 g ai/ha) is recorded as 90. For the same compound, the “Plant response rating, Rice” value in assay [4] (250 g ai/ha, scale 0 to 100) was found to be 0; in assay [4] (500 g ai/ha, scale 0 to 100), 0; in assay [4] (1000 g ai/ha, scale 0 to 100) it was 20; in assay [4] (2000 g ai/ha, scale 0 to 100), 60. In addition, the “Pigweed plant response rating” value in assay [5] (Preemergence, 31 g ai/ha) was determined as 0. Also, the “Plant response rating, Pigweed” value in assay [5] (setting [8]) and in assay [5] (setting [9]) was 60 each time. The “Plant response rating (scale of 0 to 100), Pigweed” value in assay [5] (Preemergence, 250 g ai/ha) was determined as 85.
As to `O=C1NCC(c2ccc(F)cc2)C1C(=O)Nc1ccc(F)c(F)c1F` (racemic) [Compound 120], the “Plant response rating, Lambsquarters” value worked out at 55 in assay [6] (setting [14]); 55 in assay [6] (setting [15]); 60 in assay [6] (setting [16]); 70 in assay [6] (setting [17]); 70 in assay [6] (setting [8]); 85 in assay [6] (setting [9]). In addition, in assay [6] (Preemergence, 31 g ai/ha), the “Lambsquarters plant response rating” value was 35. Moreover, the “Plant response rating (scale of 0 to 100), Lambsquarters” value in assay [6] (Preemergence, 250 g ai/ha) came to 90. Moreover, the “Plant response rating, Velvetleaf” value in assay [1] (setting [14]) is on record as 25; in assay [1] (setting [15]), 0; in assay [1] (setting [16]) it was 5; in assay [1] (setting [17]) it was 25; in assay [1] (setting [8]), 20; in assay [1] (setting [9]) it was 35. For the same compound, the “Velvetleaf plant response rating” value in assay [1] (Preemergence, 31 g ai/ha) stood at 0. The “Plant response rating (scale of 0 to 100), Velvetleaf” value in assay [1] (Preemergence, 250 g ai/ha) was found to be 40. For the same compound, the “Plant response rating, Ragweed” value was found to be 60 in assay [7] (setting [18]); 30 in assay [7] (Postemergence, 125 g ai/ha, 0 no effect, 100 complete control); 80 in assay [7] (preemergence, 500 g ai/ha). In addition, the “Ragweed plant response rating (0 to 100 scale, 0 is no effect, 100 is complete control)” value in assay [7] (Postemergence, 500 g ai/ha) is reported as 50. Further, the “Plant response rating, Crabgrass, Large” value is recorded as 55 in assay [2] (setting [14]); 70 in assay [2] (setting [15]); 70 in assay [2] (setting [16]); 75 in assay [2] (setting [17]); 100 in assay [2] (setting [8]); 100 in assay [2] (setting [9]). For the same compound, the “Crabgrass, Large plant response rating” value in assay [2] (setting [13]) came to 98. Moreover, the “Plant response rating (scale of 0 to 100), Crabgrass, Large” value in assay [2] (Preemergence, 250 g ai/ha) stood at 100. For the same compound, the “Plant response rating, Wheat” value is recorded as 0 in assay [3] (setting [14]); 0 in assay [3] (setting [15]); 0 in assay [3] (setting [16]); 0 in assay [3] (setting [17]); 35 in assay [3] (setting [8]); 30 in assay [3] (setting [9]). The “Wheat plant response rating” value in assay [3] (Preemergence, 31 g ai/ha) was 10. In addition, in assay [3] (Preemergence, 250 g ai/ha), the “Plant response rating (scale of 0 to 100), Wheat” value is given as 85. Also, the “Plant response rating, Rice” value in assay [4] (setting [12]) worked out at 0; in assay [4] (setting [19]) it was 0; in assay [4] (250 g ai/ha, scale 0 to 100) it was 0; in assay [4] (500 g ai/ha, scale 0 to 100), 0. Also, the “Plant response rating, Pigweed” value was found to be 5 in assay [5] (setting [14]); 20 in assay [5] (setting [15]); 40 in assay [5] (setting [16]); 60 in assay [5] (setting [17]); 45 in assay [5] (setting [8]); 65 in assay [5] (setting [9]). For the same compound, the “Pigweed plant response rating” value in assay [5] (Preemergence, 31 g ai/ha) came out at 50. For the same compound, the “Plant response rating (scale of 0 to 100), Pigweed” value in assay [5] (Preemergence, 250 g ai/ha) came to 80.
Take `O=C1NCC(c2cccc(C(F)F)c2)C1C(=O)Nc1ccccc1F` (racemic) [Compound 210]: the “Plant response rating, Ragweed” value in assay [7] (setting [18]) is on record as 0; in assay [7] (Postemergence, 125 g ai/ha, 0 is no effect, 100 is complete control), 0; in assay [7] (preemergence, 500 g ai/ha, 0 is no effect and 100 is complete control) it was 30. For the same compound, the “Ragweed plant response rating (0 to 100 scale, 0 is no effect, 100 is complete control)” value in assay [7] (Postemergence, 500 g ai/ha) is 0. For the same compound, the “Plant response rating, Rice” value was 0 in assay [4] (setting [19]); 0 in assay [4] (250 g ai/ha, scale of 0 to 100 where 0 is no effect and 100 is complete control, 13 to 15 days); 0 in assay [4] (500 g ai/ha, scale 0 to 100); 0 in assay [4] (1000 g ai/ha, scale 0 to 100).
In the case of `O=C1NCCC1C(=O)N(c1ccc(F)c(F)c1)c1ccccc1F` (centres unmarked) [Compound 5, N-(3,4-difluorophenyl)-N-(2-fluorophenyl)-2-oxo-3-pyrrolidinecarboxamide], the “Plant response rating, Lambsquarters” value in assay [6] (setting [8]) and in assay [6] (setting [9]) was 95 each time. Also, the “Plant response rating, Velvetleaf” value in assay [1] (setting [8]) and in assay [1] (setting [9]) was 0 each time. In addition, the “Plant response rating, Crabgrass, Large” value in assay [2] (setting [8]), in assay [2] (setting [9]) and in assay [2] (setting [11]) was 100 each time. Moreover, the “Crabgrass, Large plant response rating” value in assay [2] (setting [10]) was 100. Also, the “Plant response rating, Wheat” value was 0 in assay [3] (setting [8]) and 5 in assay [3] (setting [9]). The “Plant response rating, Rice” value is listed as 0 in assay [4] (setting [12]); 0 in assay [4] (setting [19]); 0 in assay [4] (250 g ai/ha, scale 0 to 100). Besides, the “Plant response rating, Pigweed” value in assay [5] (setting [8]) and in assay [5] (setting [9]) was 0 each time.
